For 13 compounds, Response and Effect results are on record in ChEMBL document CHEMBL1128188, “Neurosteroid analogues. 3. The synthesis and electrophysiological evaluation of benz[e]indene congeners of neuroactive steroids having the 5 beta-configuration” (1995).

Active and inactive are the calls of the source. The rule behind the calls is not given here.

Common to all, as to assay type: functional
The species entered for experiment [1] is Rattus norvegicus. Kind of experiment: The Magnitude of the peak current produced by 1 uM GABA plus 1 uM compound was normalized with respect to the peak current produced by 1 uM GABA alone on the same cell.
Experiment [2] is filed under the species Rattus norvegicus. Briefly: The compound gated current reflects the peak current directly gated by 10 uM compound in the absence of GABA compared to the response obtained from the same cell in response to 1 uM GABA alone; No response.
The species named for experiment [3] is Rattus norvegicus. Kind of experiment: The compound gated current reflects the peak current directly gated by 10 uM compound in the absence of GABA compared to the response obtained from the same cell in response to 1 uM GABA alone.
For experiment [4], the species on record is Rattus norvegicus. Kind of experiment: The Magnitude of the peak current produced by 1 uM GABA plus 1 uM compound was normalized with respect to the peak current produced by 1 uM GABA alone on the same cell. Values are mean+/-SEM.

`CC(C)(C)O[C@H]1CCC2C3CC[C@H](CCO)CC3CC[C@@]21C` (stereo partly specified): the Response in the experiment listed under Rattus norvegicus [1] was found to be 114%. Also, the Effect entry in the experiment filed under Rattus norvegicus [2] is “inactive”.

In the case of `CC(=O)[C@@H]1CC[C@H]2[C@@H]3CC[C@@H]4C[C@H](O)CCC4[C@H]3CC[C@]12C` (stereo partly specified), the Response in the experiment filed under Rattus norvegicus [1] came out at 523%. In the experiment filed under Rattus norvegicus [3], this compound came in with an Effect of 30.

Take `C[C@]12CCC3C[C@@H](CCO)CCC3C1CC[C@@H]2C#N` (stereo partly specified): the Response in the experiment filed under Rattus norvegicus [1] is listed as 497%. In addition, the Effect in the experiment listed under Rattus norvegicus [3] is 115.

Regarding `CC(=O)C1CCC2C3CC[C@H](CCO)CC3CC[C@]12C` (stereo partly specified), in the experiment listed under Rattus norvegicus [1], the Response is on record as 213%. Besides, the Effect in the experiment filed under Rattus norvegicus [3] is reported as 43.

On to `C[C@]12CC[C@@H]3C4CC[C@@H](O)C[C@H]4CC[C@H]3[C@@H]1CC[C@H]2C#N` (stereo partly specified), for which, in the experiment filed under Rattus norvegicus [1], the Response is reported as 443%. The same compound displayed an Effect in the experiment listed under Rattus norvegicus [3] of 49.

As to `CC(=O)[C@@H]1CC[C@H]2[C@@H]3CC[C@H]4C[C@H](O)CCC4[C@H]3CC[C@]12C` (stereo partly specified), in the experiment filed under Rattus norvegicus [1], the Response was 521%. The compound also displayed an Effect in the experiment listed under Rattus norvegicus [3] of 144.

Take `CC(=O)[C@H]1CCC2C3CC[C@@H](CCO)CC3CC[C@@]21C` (stereo partly specified): the Effect result in the experiment filed under Rattus norvegicus [2] is “inactive”. Moreover, the Response in the experiment listed under Rattus norvegicus [4] is 489%.

As to `C[C@]12CCC3C[C@@H](CCO)CCC3C1CCC2=O` (stereo partly specified), the Response in the experiment filed under Rattus norvegicus [1] is given as 197%. For the same compound, the Effect result in the experiment listed under Rattus norvegicus [2] is “inactive”.

For the compound `C[C@]12CCC3C[C@@H](CCO)CCC3C1CC[C@@H]2O` (stereo partly specified), the Response in the experiment filed under Rattus norvegicus [1] came to 93%. Further, the Effect result in the experiment filed under Rattus norvegicus [2] is “inactive”.

As for `C[C@]12CC[C@@H]3C4CC[C@@H](O)C[C@@H]4CC[C@H]3[C@@H]1CC[C@H]2C#N` (stereo partly specified), the Response in the experiment listed under Rattus norvegicus [1] came out at 514%. In addition, the Effect in the experiment filed under Rattus norvegicus [3] turned out to be 166.

Regarding `C[C@]12CCC3C[C@H](CCO)CCC3C1CC[C@@H]2C#N` (stereo partly specified), in the experiment listed under Rattus norvegicus [1], the Response is 346%. Further, in the experiment listed under Rattus norvegicus [2], the Effect entry is “inactive”.

With `CC(=O)[C@H]1CCC2C3CC[C@H](CCO)CC3CC[C@@]21C` (stereo partly specified), in the experiment filed under Rattus norvegicus [1], the Response was determined as 312%. This compound had an Effect in the experiment listed under Rattus norvegicus [3] of 113.

On to `C[C@]12CCC3C[C@@H](CCO)CCC3C1CCC2C#N` (stereo partly specified), for which the Response in the experiment listed under Rattus norvegicus [1] worked out at 104%. The Effect entry in the experiment listed under Rattus norvegicus [2] is “inactive”.
